Values after ≈ are worked out from the molar mass of the structure shown.

The subject of data set [1] is Salmonella enteritidis. As to the kind of experiment: Antibacterial activity against Salmonella enteritidis SM012 assessed as inhibition of bacterial growth incubated for 18 to 24 hrs by broth microdilution assay. The class given is functional, Salmonella enterica subsp. enterica serovar Enteritidis. The note with it: Salmonella enterica, time 18-24 hrs. In general terms: Dilution methods test growth across graded concentrations, often in twofold steps.

Data set [2] deals with Staphylococcus aureus. Put plainly: Antibacterial activity against Staphylococcus aureus ATCC 43300 assessed as inhibition of bacterial growth incubated for 18 to 24 hrs by broth microdilution assay. The class given is functional. The note with it: time 18-24 hrs.
Data set [3] concerns Staphylococcus aureus. As to the kind of experiment: Antibacterial activity against Staphylococcus aureus ATCC 29213 assessed as inhibition of bacterial growth incubated for 18 to 24 hrs by broth microdilution assay. The class given is functional. The settings on record: time 18-24 hrs.
Data set [4] deals with Staphylococcus aureus. As to the kind of experiment: Antibacterial activity against Staphylococcus aureus ATCC 33591 assessed as inhibition of bacterial growth incubated for 18 to 24 hrs by broth microdilution assay. The class given is functional. The settings on record: time 18-24 hrs.
Data set [5] has as its system Escherichia coli. As to the kind of experiment: Antibacterial activity against Escherichia coli ATCC 25922 assessed as inhibition of bacterial growth incubated for 18 to 24 hrs by broth microdilution assay. The class given is functional. The note with it: time 18-24 hrs.
Data set [6] deals with Staphylococcus aureus. Put plainly: Antibacterial activity against Staphylococcus aureus SH-27 assessed as inhibition of bacterial growth incubated for 18 to 24 hrs by broth microdilution assay. The class given is functional. The settings on record: time 18-24 hrs.
Data set [7] relates to Staphylococcus aureus. Put plainly: Antibacterial activity against methicillin-resistant Staphylococcus aureus 2 assessed as inhibition of bacterial growth incubated for 18 to 24 hrs by broth microdilution assay. The class given is functional. The note with it: time 18-24 hrs.
The subject of data set [8] is A549. Put plainly: Cytotoxicity against human A549 cells assessed as reduction in cell viability at 25 ug/ml incubated for 72 hrs by CCK-8 assay. The class given is toxicity, cell-based. The note with it: a549, 72 h, dose 25 µg/ml. On the technique in general: Tetrazolium assays rely on reduction of a dye to a coloured formazan, in cell work by metabolically active cells.

Data set [9] relates to L02. Put plainly: Cytotoxicity against human L02 cells assessed as reduction in cell viability at 25 ug/ml incubated for 72 hrs by CCK-8 assay. The class given is toxicity, cell-based. The note with it: l02, 72 h, dose 25 µg/ml.
A short description of data set [10]: Hemolytic activity in rabbit RBC assessed as hemolysis incubated for 1 hr by microtiter plate method. The class given is toxicity, cell-based, Oryctolagus cuniculus, Erythrocyte. The settings on record: red blood cells.

As usually defined, the MIC is the lowest concentration found to suppress growth. Regarding `COc1cc2oc3cc(OC)c(OC)c(CC=C(C)C)c3c(=O)c2c(OC)c1CC=C(C)C`, the MIC in data set [1], in data set [2], in data set [3], in [4], in [5] and in [6] was more than 256 µg/mL each time. Further, the MIC in data set [7] is more than 256 µg/mL.
Turning to `COc1c(O)cc2oc3cc(OC(C)=O)c(CC=C(C)C)c(O)c3c(=O)c2c1CC=C(C)C`, the MIC in data set [1], in data set [2], in [3], in data set [4], in [5] and in data set [6] was more than 256 µg/mL in each case. In addition, the MIC in [7] is more than 256 µg/mL.
With `C=CCOc1cc2oc3cc(OCC=C)c(OC)c(CC=C(C)C)c3c(=O)c2c(OC(C)=O)c1CC=C(C)C`, the MIC in [1], in [2], in [3], in data set [4], in data set [5] and in [6] was more than 256 µg/mL in each case. Also, the MIC in data set [7] was more than 256 µg/mL.
For the molecule `C=CCOc1cc2oc3cc(OCC=C)c(OC)c(CC=C(C)C)c3c(=O)c2c(OC(=O)C(C)C)c1CC=C(C)C`, the MIC in [1], in data set [2], in [3], in data set [4], in data set [5] and in data set [6] was more than 256 µg/mL each time. The MIC in data set [7] was more than 256 µg/mL.
As for `COc1c(OC(C)=O)cc2oc3cc(OC(C)=O)c(CC=C(C)C)c(O)c3c(=O)c2c1CC=C(C)C`, the MIC in data set [1], in [2], in data set [3], in data set [4], in data set [5] and in data set [6] was more than 256 µg/mL throughout. For the same molecule, in data set [7], the MIC is more than 256 µg/mL.
Regarding `COc1c(OC(=O)C(C)C)cc2oc3cc(O)c(CC=C(C)C)c(O)c3c(=O)c2c1CC=C(C)C`, the minimal inhibitory concentration (MIC) in [1], in data set [2], in [3], in data set [4], in [5] and in data set [6] was more than 256 µg/mL each time. The minimal inhibitory concentration (MIC) in data set [7] is more than 256 µg/mL.
Usually HC50 stands for the concentration that lyses half of the red blood cells. For the molecule `C=CCOc1cc2oc3cc(O)c(CC=C(C)C)c(O)c3c(=O)c2c(CC=C(C)C)c1OC`, the minimal inhibitory concentration (MIC) was more than 256 µg/mL in [1]; 256 µg/mL (≈ 568 µM) in [2]; more than 256 µg/mL in data set [3]; 256 µg/mL (≈ 568 µM) in data set [4]; more than 256 µg/mL in data set [5]; 2 µg/mL (≈ 4.44 µM) in data set [6]. For the same molecule, the minimum inhibitory concentration (MIC) in data set [7] was more than 256 µg/mL. The Activity result in data set [8] and in data set [9] was “Non-Toxic” throughout. The 50% haemolytic concentration (HC50) at 1 h in data set [10] is 403 µg/mL.
Regarding `COc1c(OC(C)=O)cc2oc3cc(OC(C)=O)c(CC=C(C)C)c(OC(C)=O)c3c(=O)c2c1CC=C(C)C`, the minimum inhibitory concentration (MIC) was more than 256 µg/mL in [1]; more than 256 µg/mL in data set [2]; 128 µg/mL (≈ 239 µM) in [3]; more than 256 µg/mL in data set [4]; more than 256 µg/mL in data set [5]; 16 µg/mL (≈ 29.8 µM) in [6]. Also, in data set [7], the minimal inhibitory concentration (MIC) was more than 256 µg/mL. Moreover, the Activity entry in data set [8] and in [9] was “Non-Toxic” throughout. Besides, the HC50 at 1 h in data set [10] is more than 500 µg/mL.
As to `COc1c(O)cc2oc3cc(O)c(CC=C(C)C)c(OC(=O)C(C)C)c3c(=O)c2c1CC=C(C)C`, the minimal inhibitory concentration (MIC) was more than 256 µg/mL in [1]; 1 µg/mL (≈ 2.08 µM) in data set [2]; 2 µg/mL (≈ 4.16 µM) in [3]; 1 µg/mL (≈ 2.08 µM) in data set [4]; more than 256 µg/mL in data set [5]; 1 µg/mL (≈ 2.08 µM) in data set [6]. The MIC in data set [7] is 2 µg/mL (≈ 4.16 µM). Besides, the Activity result in [8] and in data set [9] was “Non-Toxic” in each case. Further, the HC50 at 1 h in data set [10] is 263 µg/mL.
As for `COc1c(O)cc2oc3cc(OC(=O)C(C)C)c(CC=C(C)C)c(O)c3c(=O)c2c1CC=C(C)C`, the minimal inhibitory concentration (MIC) in data set [1], in [2], in data set [3], in data set [4], in data set [5] and in [6] was more than 256 µg/mL each time. Moreover, the minimal inhibitory concentration (MIC) in data set [7] is more than 256 µg/mL.
Turning to `COc1c(OC(=O)C(C)C)cc2oc3cc(OC(=O)C(C)C)c(CC=C(C)C)c(O)c3c(=O)c2c1CC=C(C)C`, the MIC in data set [1], in [2], in data set [3], in data set [4], in data set [5] and in data set [6] was more than 256 µg/mL throughout. Further, in [7], the MIC is more than 256 µg/mL.
`COc1c(O)cc2oc3cc(O)c(CCC(C)C)c(O)c3c(=O)c2c1CCC(C)C`: the minimum inhibitory concentration (MIC) in data set [1] is more than 256 µg/mL; in [2], 32 µg/mL (≈ 77.2 µM); in data set [3], 32 µg/mL (≈ 77.2 µM); in [4], 64 µg/mL (≈ 154 µM); in data set [5], more than 256 µg/mL; in data set [6] it was 64 µg/mL (≈ 154 µM). Moreover, the minimum inhibitory concentration (MIC) in [7] was determined as 64 µg/mL (≈ 154 µM).
`COc1c(OCCCCCCO)cc2oc3cc(OCCCCCCO)c(CC=C(C)C)c(O)c3c(=O)c2c1CC=C(C)C`: the MIC in data set [1], in data set [2], in [3], in data set [4], in data set [5] and in data set [6] was more than 256 µg/mL throughout. In addition, the MIC in [7] is more than 256 µg/mL.
As for `COc1c(OC(=O)C(C)C)cc2oc3cc(OC(=O)C(C)C)c(CC=C(C)C)c(OC(=O)C(C)C)c3c(=O)c2c1CC=C(C)C`, the minimum inhibitory concentration (MIC) in data set [1], in data set [2], in [3], in data set [4], in data set [5] and in data set [6] was more than 256 µg/mL each time. In addition, the MIC in [7] is more than 256 µg/mL.
`COc1c(O)cc2oc3cc4c(c(O)c3c(=O)c2c1CC=C(C)C)CCC(C)(C)O4`: the MIC in [1] is more than 256 µg/mL; in [2], 64 µg/mL (≈ 156 µM); in data set [3] it was 64 µg/mL (≈ 156 µM); in [4], 32 µg/mL (≈ 78 µM); in data set [5], more than 256 µg/mL; in data set [6] it was 64 µg/mL (≈ 156 µM). Besides, the MIC in data set [7] was found to be 64 µg/mL (≈ 156 µM).
Turning to `C=CCOc1cc2oc3cc(OCC=C)c(OC)c(CC=C(C)C)c3c(=O)c2c(O)c1CC=C(C)C`, the minimum inhibitory concentration (MIC) in data set [1], in [2], in data set [3], in data set [4], in data set [5] and in [6] was more than 256 µg/mL throughout. In addition, in [7], the minimum inhibitory concentration (MIC) was more than 256 µg/mL.
For the molecule `COc1c(OCCCCCCO)cc2oc3cc(O)c(CC=C(C)C)c(O)c3c(=O)c2c1CC=C(C)C`, the MIC in [1], in data set [2], in data set [3], in data set [4], in data set [5] and in [6] was more than 256 µg/mL throughout. Further, the minimal inhibitory concentration (MIC) in data set [7] was more than 256 µg/mL.
In the case of `COc1c(O)cc2c(c1CC=C(C)C)Cc1c(cc(O)c(CC=C(C)C)c1O)O2`, the minimal inhibitory concentration (MIC) in data set [1] is more than 256 µg/mL; in data set [2], 4 µg/mL (≈ 10.1 µM); in data set [3], 16 µg/mL (≈ 40.4 µM); in [4], 8 µg/mL (≈ 20.2 µM); in [5], more than 256 µg/mL; in [6], 8 µg/mL (≈ 20.2 µM). Also, the MIC in data set [7] is 16 µg/mL (≈ 40.4 µM). The Activity entry in data set [8] and in data set [9] was “Non-Toxic” throughout. For the same molecule, in [10], the HC50 at 1 h is more than 500 µg/mL.
For the molecule `COc1c(OCc2ccccc2)cc2oc3cc(OCc4ccccc4)c(CC=C(C)C)c(OCc4ccccc4)c3c(=O)c2c1CC=C(C)C`, the MIC in data set [1], in data set [2], in data set [3], in [4], in data set [5] and in data set [6] was more than 256 µg/mL throughout. In [7], the MIC was more than 256 µg/mL.

The record behind these values is ChEMBL document CHEMBL5252628, “Novel xanthone antibacterials: Semi-synthesis, biological evaluation, and the action mechanisms” (Bioorg Med Chem, 2023).
